Literature values, collected in patent publication US20190202814A1, “PROCESSES FOR PREPARATION OF EMPAGLIFLOZIN” (CADILA HEALTHCARE LIMITED, priority 2015, published 2019).

Tests used:
[1] = crystalline solid

- solubility in acetonitrile (acetonitrile): very slightly soluble
- solubility in ethanol (ethanol): very slightly soluble
- solubility in methanol (methanol): sparingly soluble
- solubility in toluene (toluene): practically insoluble
- solubility in water (water): very slightly soluble
- hygroscopicity [1]: non-hygroscopic
SMILES: OC[C@H]1O[C@@H](c2ccc(Cl)c(Cc3ccc(O[C@H]4CCOC4)cc3)c2)[C@H](O)[C@@H](O)[C@@H]1O [Empagliflozin, (1S)-1,5-anhydro-1-{4-chloro-3-(4-[(3S)-tetrahydrofuran-3-yloxy]benzyl}phenyl)-D-glucitol]
